Measurements as given in the supplement of paper PMC11451515.

Key:
Settings in all cases: 48 h
SEM cells [1] = assay: AUC of viability dose-response curve (% viability x log10 dose units); higher = less sensitive
Method in brief: (§1)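 Seeding of medium-adapted leukemia cells was at 500 or 1000 cells/well in 1536-well plates, followed by 48 h at 37°C with library compounds in DMSO at 11 threefold doses from 47 μM to 0.79 nM. CellTiter-Glo One luminescence was normalised per plate to DMSO and cell-free wells and fitted as a four-parameter log-logistic function of log10 dose. Area under the curve was integrated by trapezoidal rule, with curves exceeding full viability scaled and curves failing quality control removed.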

NOMO1 = assay: as above
Method in brief: as §1

P12-Ichikawa [2] = assay: as above
Method in brief: as §1

SEM cells [3] = assay: cell viability relative to DMSO control; higher = less cytotoxic
Method in brief: (§2)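 NOMO1 or SEM (500 cells/well) or P12-Ichikawa (1000 cells/well) leukemia cells were adapted for at least four passages in each medium. They were seeded in 1536-well plates (5 μl) and pin-dosed with library compounds in DMSO over an 11-point threefold series, 47 μM to 0.79 nM. CellTiter-Glo One luminescence was read after 48 h at 37°C. Viability is the per-plate percentage relative to DMSO wells, with cell-free wells as background.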

P12-Ichikawa [4] = assay: as above
Method in brief: as §2

CCCc1cc(C(N)=S)ccn1
AUC of viability dose-response curve
Settings	NOMO1	P12-Ichikawa [2]	SEM cells [1]
HPLM + 10% dialyzed FBS	470	466	446
RPMI 5 mM glucose + 10% FBS	472	436	469
RPMI 5 mM glucose + 10% dialyzed FBS	465	472	475

SEM cells [3], HPLM + 10% dialyzed FBS
Settings	cell viability [%]
0.000781 µM	92.5
0.00234 µM	110
0.00702 µM	111
0.0211 µM	113
0.0632 µM	114
0.19 µM	117
0.569 µM	85.6
1.71 µM	56.3
5.12 µM	119
15.4 µM	130
46.1 µM	133

CCn1cc(-c2ccnc3[nH]c(-c4cccc(CN(C)C)c4)cc23)c(-c2ccc(NC(=O)N(C)C)cc2)n1
AUC of viability dose-response curve
Settings	NOMO1	P12-Ichikawa [2]	SEM cells [1]
HPLM + 10% dialyzed FBS	375	220	271
RPMI 5 mM glucose + 10% FBS	318	234	224
RPMI 5 mM glucose + 10% dialyzed FBS	323	252	233

SEM cells [3], HPLM + 10% dialyzed FBS
Settings	cell viability [%]
0.000781 µM	123
0.00234 µM	112
0.00702 µM	135
0.0211 µM	138
0.0632 µM	79.6
0.19 µM	52.5
0.569 µM	44.8
1.71 µM	48.9
5.12 µM	41.6
15.4 µM	19.4
46.1 µM	9.33

CCC[C@H](NC(=O)[C@@H]1[C@H]2CCC[C@H]2CN1C(=O)[C@@H](NC(=O)[C@@H](NC(=O)c1cnccn1)C1CCCCC1)C(C)(C)C)C(=O)C(=O)NC1CC1
AUC of viability dose-response curve
Settings	NOMO1	P12-Ichikawa [2]	SEM cells [1]
HPLM + 10% dialyzed FBS	461	474	454
RPMI 5 mM glucose + 10% FBS	474	473	469
RPMI 5 mM glucose + 10% dialyzed FBS	472	476	470

SEM cells [3], HPLM + 10% dialyzed FBS
Settings	cell viability [%]
0.000781 µM	106
0.00234 µM	99.8
0.00702 µM	106
0.0211 µM	106
0.0632 µM	111
0.19 µM	118
0.569 µM	118
1.71 µM	119
5.12 µM	127
15.4 µM	111
46.1 µM	116

CN(C)C(=N)NC(=N)N
AUC of viability dose-response curve
Settings	NOMO1	P12-Ichikawa [2]	SEM cells [1]
HPLM + 10% dialyzed FBS	437	442	436
RPMI 5 mM glucose + 10% FBS	446	460	393
RPMI 5 mM glucose + 10% dialyzed FBS	451	457	426

SEM cells [3], RPMI 5 mM glucose + 10% FBS
Settings	cell viability [%]
0.000781 µM	110
0.00234 µM	122
0.00702 µM	116
0.0211 µM	132
0.0632 µM	152
0.19 µM	154
0.569 µM	156
1.71 µM	110
5.12 µM	62.4
15.4 µM	56.6
46.1 µM	17.8

C=C1/C(=C\C=C2/CCC[C@]3(C)[C@@H]([C@H](C)CCCC(C)(C)O)CC[C@@H]23)C[C@@H](O)C[C@@H]1O
AUC of viability dose-response curve
Settings	NOMO1	P12-Ichikawa [2]	SEM cells [1]
HPLM + 10% dialyzed FBS	440	454	459
RPMI 5 mM glucose + 10% FBS	448	445	449
RPMI 5 mM glucose + 10% dialyzed FBS	448	458	450

Settings	cell viability [%]
P12-Ichikawa [4], HPLM + 10% dialyzed FBS, 0.000781 µM	122
P12-Ichikawa [4], HPLM + 10% dialyzed FBS, 0.00234 µM	126
P12-Ichikawa [4], HPLM + 10% dialyzed FBS, 0.00702 µM	118
P12-Ichikawa [4], HPLM + 10% dialyzed FBS, 0.0211 µM	131
P12-Ichikawa [4], HPLM + 10% dialyzed FBS, 0.0632 µM	124
P12-Ichikawa [4], HPLM + 10% dialyzed FBS, 0.19 µM	123
P12-Ichikawa [4], HPLM + 10% dialyzed FBS, 0.569 µM	120
P12-Ichikawa [4], HPLM + 10% dialyzed FBS, 1.71 µM	117
P12-Ichikawa [4], HPLM + 10% dialyzed FBS, 15.4 µM	118
P12-Ichikawa [4], HPLM + 10% dialyzed FBS, 46.1 µM	90.4
SEM cells [3], RPMI 5 mM glucose + 10% FBS, 0.000781 µM	105
SEM cells [3], RPMI 5 mM glucose + 10% FBS, 0.00234 µM	120
SEM cells [3], RPMI 5 mM glucose + 10% FBS, 0.00702 µM	117
SEM cells [3], RPMI 5 mM glucose + 10% FBS, 0.0211 µM	113
SEM cells [3], RPMI 5 mM glucose + 10% FBS, 0.0632 µM	123
SEM cells [3], RPMI 5 mM glucose + 10% FBS, 0.19 µM	110
SEM cells [3], RPMI 5 mM glucose + 10% FBS, 0.569 µM	126
SEM cells [3], RPMI 5 mM glucose + 10% FBS, 1.71 µM	113
SEM cells [3], RPMI 5 mM glucose + 10% FBS, 5.12 µM	92.9
SEM cells [3], RPMI 5 mM glucose + 10% FBS, 15.4 µM	98.7
SEM cells [3], RPMI 5 mM glucose + 10% FBS, 46.1 µM	57.2

COC(c1ccccc1)(c1ccccc1)[C@H](Oc1nc(C)cc(C)n1)C(=O)O
AUC of viability dose-response curve
Settings	NOMO1	P12-Ichikawa [2]	SEM cells [1]
HPLM + 10% dialyzed FBS	444	464	462
RPMI 5 mM glucose + 10% FBS	452	465	466
RPMI 5 mM glucose + 10% dialyzed FBS	467	464	463

SEM cells [3], RPMI 5 mM glucose + 10% dialyzed FBS
Settings	cell viability [%]
0.000781 µM	115
0.00234 µM	134
0.00702 µM	122
0.0211 µM	139
0.0632 µM	177
0.19 µM	160
0.569 µM	167
1.71 µM	152
5.12 µM	140
15.4 µM	133
46.1 µM	85.1

CCNC(=O)C[C@H]1/N=C(/C2=CC=C(Cl)C=C2)C3=CC(=CC=C3[N]4C(=NN=C14)C)OC
AUC of viability dose-response curve
Settings	NOMO1	P12-Ichikawa [2]	SEM cells [1]
HPLM + 10% dialyzed FBS	465	464	442
RPMI 5 mM glucose + 10% FBS	461	460	450
RPMI 5 mM glucose + 10% dialyzed FBS	445	462	440

SEM cells [3], RPMI 5 mM glucose + 10% dialyzed FBS
Settings	cell viability [%]
0.000781 µM	122
0.00234 µM	124
0.00702 µM	138
0.0211 µM	119
0.0632 µM	141
0.19 µM	117
0.569 µM	155
1.71 µM	122
5.12 µM	108
15.4 µM	99.4
46.1 µM	22.2

O=C(NCC1CCCCN1)c1cc(OCC(F)(F)F)ccc1OCC(F)(F)F (stereo unspecified)
AUC of viability dose-response curve
Settings	NOMO1	P12-Ichikawa [2]	SEM cells [1]
HPLM + 10% dialyzed FBS	326	352	457
RPMI 5 mM glucose + 10% FBS	304	353	464
RPMI 5 mM glucose + 10% dialyzed FBS	317	375	468

cell viability [%], SEM cells [3]
Settings	HPLM + 10% dialyzed FBS	RPMI 5 mM glucose + 10% FBS
0.000781 µM	104	117
0.00234 µM	130	115
0.00702 µM	115	124
0.0211 µM	128	137
0.0632 µM	130	121
0.19 µM	151	127
0.569 µM	130	131
1.71 µM	140	128
5.12 µM	115	120
15.4 µM	118	121
46.1 µM	43.7	61.9

CCC1(c2ccccc2)C(=O)NCNC1=O
AUC of viability dose-response curve
Settings	NOMO1	P12-Ichikawa [2]	SEM cells [1]
HPLM + 10% dialyzed FBS	442	471	441
RPMI 5 mM glucose + 10% FBS	448	453	445
RPMI 5 mM glucose + 10% dialyzed FBS	471	466	452

cell viability [%]
Settings	HPLM + 10% dialyzed FBS	RPMI 5 mM glucose + 10% FBS	RPMI 5 mM glucose + 10% dialyzed FBS
P12-Ichikawa [4], 0.000781 µM	103	104	94.5
P12-Ichikawa [4], 0.00234 µM	114	111	109
P12-Ichikawa [4], 0.00702 µM	118	122	118
P12-Ichikawa [4], 0.0211 µM	120	128	115
P12-Ichikawa [4], 0.0632 µM	120	134	120
P12-Ichikawa [4], 0.19 µM	118	127	116
P12-Ichikawa [4], 0.569 µM	121	129	117
P12-Ichikawa [4], 1.71 µM	119	126	118
P12-Ichikawa [4], 5.12 µM	116	142	126
P12-Ichikawa [4], 15.4 µM	118	143	121
P12-Ichikawa [4], 46.1 µM	119	131	117
SEM cells [3], 0.000781 µM	94.6	100	91.6
SEM cells [3], 0.00234 µM	104	112	115
SEM cells [3], 0.00702 µM	105	108	123
SEM cells [3], 0.0211 µM	78.7	76.1	84.4
SEM cells [3], 0.0632 µM	102	106	108
SEM cells [3], 0.19 µM	110	109	120
SEM cells [3], 0.569 µM	114	108	117
SEM cells [3], 1.71 µM	117	103	115
SEM cells [3], 5.12 µM	116	116	114
SEM cells [3], 15.4 µM	106	113	117
SEM cells [3], 46.1 µM	122	117	109

Cc1cc(Nc2cc(NC(=O)c3c(Cl)cccc3Cl)ccn2)nc(N)n1
AUC of viability dose-response curve
Settings	NOMO1	P12-Ichikawa [2]	SEM cells [1]
HPLM + 10% dialyzed FBS	373	364	368
RPMI 5 mM glucose + 10% FBS	391	364	391
RPMI 5 mM glucose + 10% dialyzed FBS	359	346	341

SEM cells [3], HPLM + 10% dialyzed FBS
Settings	cell viability [%]
0.000781 µM	112
0.00234 µM	123
0.00702 µM	126
0.0211 µM	124
0.0632 µM	128
0.19 µM	128
0.569 µM	113
1.71 µM	61.3
5.12 µM	40.9
15.4 µM	37.9
46.1 µM	40.2
